Test results published in the NIST ThermoML archive (doi:10.1016/j.fluid.2013.01.011).
± gives the expanded uncertainty stated by the source. Values belong to the compound of their own block, whether it stands above or below them.

What was measured:
[1] = excess molar enthalpy (molar enthalpy of mixing); xn = mol fraction of the nth substance listed; settings: 298.15 K, 101 kPa, Liquid, Calvet calorimetry
[2] = 298.15 K; 101.33 kPa; Liquid; Vibrating tube method

Compound: CCCCNCCCC [dibutylamine] + CCCC(C)=O
excess molar enthalpy ([1]; x1 = 0.1111): 0.0406 ± 0.000956 kcal/mol
excess molar enthalpy ([1]; x1 = 0.2106): 0.0684 ± 0.00143 kcal/mol
excess molar enthalpy ([1]; x1 = 0.3072): 0.0908 ± 0.00191 kcal/mol
excess molar enthalpy ([1]; x1 = 0.3973): 0.102 ± 0.00215 kcal/mol
excess molar enthalpy ([1]; x1 = 0.4942): 0.108 ± 0.00239 kcal/mol
excess molar enthalpy ([1]; x1 = 0.6052): 0.104 ± 0.00239 kcal/mol
excess molar enthalpy ([1]; x1 = 0.6999): 0.0937 ± 0.00215 kcal/mol
excess molar enthalpy ([1]; x1 = 0.7881): 0.0762 ± 0.00167 kcal/mol
excess molar enthalpy ([1]; x1 = 0.8848): 0.0485 ± 0.0012 kcal/mol

Compound: CCCNCCC [dipropylamine] + CCCC(C)=O
excess molar enthalpy ([1]; x1 = 0.1056): 0.0208 ± 0.000478 kcal/mol
excess molar enthalpy ([1]; x1 = 0.1981): 0.0368 ± 0.000956 kcal/mol
excess molar enthalpy ([1]; x1 = 0.3098): 0.0519 ± 0.0012 kcal/mol
excess molar enthalpy ([1]; x1 = 0.3988): 0.0621 ± 0.00143 kcal/mol
excess molar enthalpy ([1]; x1 = 0.5023): 0.0672 ± 0.00143 kcal/mol
excess molar enthalpy ([1]; x1 = 0.5922): 0.0679 ± 0.00143 kcal/mol
excess molar enthalpy ([1]; x1 = 0.6821): 0.0638 ± 0.00143 kcal/mol
excess molar enthalpy ([1]; x1 = 0.781): 0.0545 ± 0.0012 kcal/mol
excess molar enthalpy ([1]; x1 = 0.8693): 0.0382 ± 0.000956 kcal/mol

Compound: CCCNCCC [dipropylamine] + CCCCCC(C)=O
excess molar enthalpy ([1]; x1 = 0.1145): 0.0112 ± 0.000478 kcal/mol
excess molar enthalpy ([1]; x1 = 0.212): 0.021 ± 0.000478 kcal/mol
excess molar enthalpy ([1]; x1 = 0.3072): 0.0282 ± 0.000717 kcal/mol
excess molar enthalpy ([1]; x1 = 0.4034): 0.0342 ± 0.000717 kcal/mol
excess molar enthalpy ([1]; x1 = 0.4993): 0.0387 ± 0.000956 kcal/mol
excess molar enthalpy ([1]; x1 = 0.6017): 0.0406 ± 0.000956 kcal/mol
excess molar enthalpy ([1]; x1 = 0.6872): 0.038 ± 0.000956 kcal/mol
excess molar enthalpy ([1]; x1 = 0.7868): 0.0327 ± 0.000717 kcal/mol
excess molar enthalpy ([1]; x1 = 0.8796): 0.0229 ± 0.000478 kcal/mol

mass density [2]: 801.522 ± 0.24 kg/m3
Compound: CCCC(C)=O [pentan-2-one]

Compound: CCC(C)=O [butanone]
mass density [2]: 799.969 ± 0.15 kg/m3

Compound: CCCCNCCCC [dibutylamine] + CCC(C)=O
excess molar enthalpy ([1]; x1 = 0.1142): 0.0655 ± 0.00143 kcal/mol
excess molar enthalpy ([1]; x1 = 0.2078): 0.102 ± 0.00215 kcal/mol
excess molar enthalpy ([1]; x1 = 0.2985): 0.128 ± 0.00287 kcal/mol
excess molar enthalpy ([1]; x1 = 0.3978): 0.144 ± 0.00311 kcal/mol
excess molar enthalpy ([1]; x1 = 0.4956): 0.148 ± 0.00311 kcal/mol
excess molar enthalpy ([1]; x1 = 0.6001): 0.142 ± 0.00311 kcal/mol
excess molar enthalpy ([1]; x1 = 0.693): 0.126 ± 0.00263 kcal/mol
excess molar enthalpy ([1]; x1 = 0.7846): 0.0997 ± 0.00215 kcal/mol
excess molar enthalpy ([1]; x1 = 0.8802): 0.0645 ± 0.00143 kcal/mol

Compound: CCCCNCCCC [dibutylamine] + CC(C)=O
excess molar enthalpy ([1]; x1 = 0.1101): 0.106 ± 0.00239 kcal/mol
excess molar enthalpy ([1]; x1 = 0.2103): 0.165 ± 0.00359 kcal/mol
excess molar enthalpy ([1]; x1 = 0.2999): 0.204 ± 0.0043 kcal/mol
excess molar enthalpy ([1]; x1 = 0.398): 0.22 ± 0.00478 kcal/mol
excess molar enthalpy ([1]; x1 = 0.4977): 0.224 ± 0.00478 kcal/mol
excess molar enthalpy ([1]; x1 = 0.6088): 0.206 ± 0.00454 kcal/mol
excess molar enthalpy ([1]; x1 = 0.6999): 0.181 ± 0.00382 kcal/mol
excess molar enthalpy ([1]; x1 = 0.79): 0.143 ± 0.00311 kcal/mol
excess molar enthalpy ([1]; x1 = 0.8913): 0.0827 ± 0.00191 kcal/mol

Compound: CCCNCCC [dipropylamine] + CC(C)=O
excess molar enthalpy ([1]; x1 = 0.1063): 0.0652 ± 0.00143 kcal/mol
excess molar enthalpy ([1]; x1 = 0.2076): 0.113 ± 0.00239 kcal/mol
excess molar enthalpy ([1]; x1 = 0.3036): 0.14 ± 0.00311 kcal/mol
excess molar enthalpy ([1]; x1 = 0.3982): 0.151 ± 0.00335 kcal/mol
excess molar enthalpy ([1]; x1 = 0.4932): 0.153 ± 0.00335 kcal/mol
excess molar enthalpy ([1]; x1 = 0.5821): 0.147 ± 0.00311 kcal/mol
excess molar enthalpy ([1]; x1 = 0.6773): 0.129 ± 0.00287 kcal/mol
excess molar enthalpy ([1]; x1 = 0.7652): 0.104 ± 0.00215 kcal/mol
excess molar enthalpy ([1]; x1 = 0.8488): 0.0707 ± 0.00167 kcal/mol

mass density [2]: 811.162 ± 0.24 kg/m3
Compound: CCCCCC(C)=O [2-heptanone]

Compound: CCCNCCC [dipropylamine]
mass density [2]: 733.723 ± 0.25 kg/m3

Compound: CCCCNCCCC [dibutylamine] + CCCCCC(C)=O
excess molar enthalpy ([1]; x1 = 0.1114): 0.0206 ± 0.000478 kcal/mol
excess molar enthalpy ([1]; x1 = 0.2189): 0.0392 ± 0.000956 kcal/mol
excess molar enthalpy ([1]; x1 = 0.3057): 0.0519 ± 0.0012 kcal/mol
excess molar enthalpy ([1]; x1 = 0.4038): 0.0607 ± 0.00143 kcal/mol
excess molar enthalpy ([1]; x1 = 0.5087): 0.0664 ± 0.00143 kcal/mol
excess molar enthalpy ([1]; x1 = 0.5962): 0.0664 ± 0.00143 kcal/mol
excess molar enthalpy ([1]; x1 = 0.7053): 0.0612 ± 0.00143 kcal/mol
excess molar enthalpy ([1]; x1 = 0.8017): 0.0497 ± 0.0012 kcal/mol
excess molar enthalpy ([1]; x1 = 0.8891): 0.033 ± 0.000717 kcal/mol

Compound: CCCNCCC [dipropylamine] + CCC(C)=O
excess molar enthalpy ([1]; x1 = 0.1042): 0.037 ± 0.000956 kcal/mol
excess molar enthalpy ([1]; x1 = 0.1978): 0.0605 ± 0.00143 kcal/mol
excess molar enthalpy ([1]; x1 = 0.3016): 0.0798 ± 0.00167 kcal/mol
excess molar enthalpy ([1]; x1 = 0.3852): 0.0884 ± 0.00191 kcal/mol
excess molar enthalpy ([1]; x1 = 0.495): 0.0949 ± 0.00215 kcal/mol
excess molar enthalpy ([1]; x1 = 0.5459): 0.0946 ± 0.00215 kcal/mol
excess molar enthalpy ([1]; x1 = 0.5908): 0.0937 ± 0.00215 kcal/mol
excess molar enthalpy ([1]; x1 = 0.6833): 0.0851 ± 0.00191 kcal/mol
excess molar enthalpy ([1]; x1 = 0.7647): 0.0715 ± 0.00167 kcal/mol
excess molar enthalpy ([1]; x1 = 0.8559): 0.0488 ± 0.0012 kcal/mol

Compound: CC(C)=O [acetone]
mass density [2]: 785.094 ± 0.13 kg/m3

Compound: CCCCNCCCC [dibutylamine]
mass density [2]: 755.528 ± 0.16 kg/m3
